From patent US20100068786A1, “METHODS AND COMPOSITIONS FOR REVERSING P-GLYCOPROTEIN MEDICATED DRUG RESISTANCE” (priority 2008, published 2010)

Columns and labels:
[1] = system: MCF-7/DX1; details: MCF-7/DX1 vs MCF-7 cells; cited from earlier work
[2] = biological target: T1, P-gp (Mus musculus, UniProt P21447); details: P-gp knock-out mice vs wild-type; cited from earlier work
T1 construct: A comparison of P-gp knock-out mice to their wild-type counterparts; host or cells: mouse, in vivo (blood-brain barrier)

[3] = biological target: T1, P-gp; details: co-administration in mice of P-gp inhibitor LY335979 and nelfinavir; cited from earlier work
[4] = system: implanted human glioblastomas; details: cited from earlier work
[5] = system: MCF-7/DX1 cells; assay: MTT cell viability assay, reversal of taxol resistance; assay type: cell-based, human; details: P-gp over-expressing MCF-7/DX1 cell line, FIG. 8
Protocol: The inhibition of P-gp transport was evaluated with the prodrug dimers and monomer controls in the human carcinoma MCF7-DX1 cell line.
The P-gp-mediated multidrug resistance phenotype of cancer cells is characterized by the ability of cells to evade the cytotoxic effects of drugs that are substrates of P-gp and remain viable even at high extracellular drugs concentrations. One such compound is the cytostatic agent taxol, which is also a known P-gp substrate (Horwitz et al., 1993). Cells lines that over-express P-gp, such as the MCF-7/DX1 cell line, display a 3000-fold decrease in susceptibility to taxol (FIG. 8).

T1 sequence (P21447 whole entry): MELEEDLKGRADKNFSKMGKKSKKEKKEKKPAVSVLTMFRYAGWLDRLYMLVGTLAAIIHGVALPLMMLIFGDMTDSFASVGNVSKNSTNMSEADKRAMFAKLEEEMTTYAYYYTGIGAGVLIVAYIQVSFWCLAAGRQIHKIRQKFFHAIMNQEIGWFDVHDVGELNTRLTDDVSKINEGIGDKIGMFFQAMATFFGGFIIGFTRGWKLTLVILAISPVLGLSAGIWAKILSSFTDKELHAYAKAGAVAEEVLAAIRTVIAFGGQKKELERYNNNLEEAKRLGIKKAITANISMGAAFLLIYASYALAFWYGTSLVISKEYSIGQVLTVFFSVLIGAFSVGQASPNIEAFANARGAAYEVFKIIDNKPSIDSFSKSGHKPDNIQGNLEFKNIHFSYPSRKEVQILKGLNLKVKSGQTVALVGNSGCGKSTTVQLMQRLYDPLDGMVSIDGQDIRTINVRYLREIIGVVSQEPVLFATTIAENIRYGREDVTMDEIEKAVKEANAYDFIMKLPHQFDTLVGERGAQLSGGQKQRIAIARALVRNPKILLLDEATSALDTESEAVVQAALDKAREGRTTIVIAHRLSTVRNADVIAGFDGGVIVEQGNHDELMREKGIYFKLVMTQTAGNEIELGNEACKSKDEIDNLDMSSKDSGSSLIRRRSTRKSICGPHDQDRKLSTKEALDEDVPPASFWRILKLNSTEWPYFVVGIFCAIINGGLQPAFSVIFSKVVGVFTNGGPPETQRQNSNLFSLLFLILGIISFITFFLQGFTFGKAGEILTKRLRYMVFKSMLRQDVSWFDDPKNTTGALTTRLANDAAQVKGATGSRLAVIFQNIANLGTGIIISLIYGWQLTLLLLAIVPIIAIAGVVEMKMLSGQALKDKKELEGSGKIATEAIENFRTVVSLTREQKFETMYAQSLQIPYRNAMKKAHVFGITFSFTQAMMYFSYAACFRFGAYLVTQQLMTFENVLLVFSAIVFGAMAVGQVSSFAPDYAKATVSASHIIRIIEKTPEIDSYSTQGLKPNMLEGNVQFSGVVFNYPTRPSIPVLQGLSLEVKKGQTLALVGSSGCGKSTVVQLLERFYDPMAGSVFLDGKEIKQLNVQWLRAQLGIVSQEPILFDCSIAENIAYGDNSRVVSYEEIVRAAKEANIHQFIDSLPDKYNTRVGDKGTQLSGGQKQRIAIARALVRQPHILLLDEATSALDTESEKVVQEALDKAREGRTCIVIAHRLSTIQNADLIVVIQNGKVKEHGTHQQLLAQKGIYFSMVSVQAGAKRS

COc1cccc2c1C(=O)c1c(O)c3c(c(O)c1C2=O)C[C@@](O)(C(=O)CO)C[C@@H]3O[C@H]1C[C@H](N)[C@H](O)[C@H](C)O1 [doxorubicin]
resistance to doxorubicin [1]: 200 fold

Cc1c(O)cccc1C(=O)N[C@@H](CSc1ccccc1)[C@H](O)CN1C[C@H]2CCCC[C@H]2C[C@H]1C(=O)NC(C)(C)C [nelfinavir]
increase in brain penetration [2]: 40 fold | increase in the level of the therapeutic agent in the brain [3]: 25 fold

CC(C)(C)NC(=O)[C@@H]1C[C@@H]2CCCC[C@@H]2CN1C[C@@H](O)[C@H](Cc1ccccc1)NC(=O)[C@H](CC(N)=O)NC(=O)c1ccc2ccccc2n1 [saquinavir]
increase in brain penetration [2]: 10 fold

CC(=O)O[C@H]1C(=O)[C@@]2(C)[C@H]([C@H](OC(=O)c3ccccc3)[C@]3(O)C[C@H](OC(=O)[C@H](O)[C@@H](NC(=O)c4ccccc4)c4ccccc4)C(C)=C1C3(C)C)[C@]1(OC(C)=O)CO[C@@H]1C[C@@H]2O [taxol, paclitaxel]
reduction of growth of implanted human glioblastomas ([4]; co-administration of paclitaxel with valspodar (PSC833) in mice): 90% | effect on tumor size ([4]; treatment with either drug alone, mice): no effect | decrease in susceptibility to taxol [5]: 3000 fold
